# Target: T1, chimeric human H3 receptor (Homo sapiens, UniProt Q9Y5N1, E19D)
# T1 construct: made in house; host or cells: Sf9 insect cells (baculovirus infection); P2 membrane preparation
# Assay: Chimeric human H3 receptor screening GTP binding assay (inhibition of histamine-stimulated GTP-gamma35S binding, Example 8)
# Assay type: biochemical
# Details: 1 h; "+" in Ki of Table II; assay of Example 8; read-out: percent inhibition of agonist-induced GTP-gammaS binding to H3
# Method: This Example illustrates a representative screening assay for evaluating inhibition of histamine-stimulated GTP-gamma^35S binding. Such GTP binding activity can be used to identify H3 antagonists and inverse agonists. A compound analyzed in this assay is referred to herein as a “test compound,” and the initial identification of antagonists and inverse agonists is performed using a test compound concentration of 4 μM.
# Four independent baculoviral stocks (one directing the expression of the chimeric human H3 receptor and three directing the expression of each of the three subunits of a heterotrimeric G-protein) are used to infect a culture of Sf9 cells as described above. P2 membranes are prepared as described above, and are resuspended by Dounce homogenization (tight pestle) in GTP binding assay buffer (50 mM Tris pH 7.4, 120 mM NaCl, 5 mM MgCl2, 2 mM EGTA, 1 mg/ml BSA, 0.2 mg/ml bacitracin, 0.02 mg/ml aprotinin, 0.01 mg/ml saponin, 10 μM GDP) and added to assay tubes at a concentration of 35 μg protein/reaction tube. Non-radiolabeled test compounds are added to separate reactions at a concentration of 4 μM along with 1 μM histamine (agonist). Reactions are initiated by the addition of 125 pM GTP-gamma^35S with a final assay volume of 0.20 ml.
# After a 60-min incubation at room temperature, reactions are terminated by vacuum filtration over GF/C filters (pre-soaked in 50 mM Tris pH 7.4, 120 mM NaCl plus 0.1% BSA) followed by washing with ice-cold buffer (50 mM Tris pH 7.4, 120 mM NaCl). The amount of receptor-bound (and thereby membrane-bound) GTP-gamma^35S is determined by measuring the bound radioactivity, preferably by liquid scintillation spectrometry of the washed filters. Non-specific binding is determined using 10 uM GTP-gammaS and typically represents less than 5 percent of total binding. After subtraction of non-specific binding, data is expressed as percent inhibition of 1 μM histamine signal.
# Neutral antagonists are those test compounds that reduce the histamine-stimulated GTP binding activity towards, but not below, baseline levels. In contrast, in the absence of added histamine, inverse agonists reduce the GTP binding activity of the receptor-containing membranes below baseline. Any test compound that elevates GTP binding activity above baseline in the absence of added histamine in this assay is defined as having agonist activity.
# T1 sequence (Q9Y5N1 with tags, fused parts or gaps E19D): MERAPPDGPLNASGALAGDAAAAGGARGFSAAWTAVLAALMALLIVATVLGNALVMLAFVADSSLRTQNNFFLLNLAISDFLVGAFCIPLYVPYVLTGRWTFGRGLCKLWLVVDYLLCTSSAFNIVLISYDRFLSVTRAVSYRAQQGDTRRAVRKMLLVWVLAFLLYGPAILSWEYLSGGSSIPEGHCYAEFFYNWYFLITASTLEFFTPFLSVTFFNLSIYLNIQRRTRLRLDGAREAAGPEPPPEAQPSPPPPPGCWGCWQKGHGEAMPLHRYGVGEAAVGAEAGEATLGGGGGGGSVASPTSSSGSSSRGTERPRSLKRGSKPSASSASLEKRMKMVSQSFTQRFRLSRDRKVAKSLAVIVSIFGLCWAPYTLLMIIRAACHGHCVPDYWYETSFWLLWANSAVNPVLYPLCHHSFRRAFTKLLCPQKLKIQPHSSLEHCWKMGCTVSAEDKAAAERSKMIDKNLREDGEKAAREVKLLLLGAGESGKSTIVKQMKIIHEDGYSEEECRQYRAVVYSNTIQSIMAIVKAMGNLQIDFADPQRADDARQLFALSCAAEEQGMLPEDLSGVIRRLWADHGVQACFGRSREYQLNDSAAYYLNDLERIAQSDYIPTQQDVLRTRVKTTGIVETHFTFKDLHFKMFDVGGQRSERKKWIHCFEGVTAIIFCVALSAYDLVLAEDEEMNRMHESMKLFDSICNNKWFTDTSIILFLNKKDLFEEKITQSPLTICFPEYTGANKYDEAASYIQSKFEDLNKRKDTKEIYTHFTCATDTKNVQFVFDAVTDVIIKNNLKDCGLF
row,inhibition at 4 µM [%],SMILES
1,> 90,"O=C(CN1CCN(C(=O)c2cc(C(F)(F)F)ccc2Cl)CC1)N1CCN(C2CCC2)CC1 [Compound 452, 1-[2-chloro-5-(trifluoromethyl)benzoyl]-4-[2-(4-cyclobutylpiperazin-1-yl)-2-oxoethyl]piperazine]"
2,> 90,"O=C(CN1CCN(C(=O)c2cc(C(F)(F)F)cc(C(F)(F)F)c2)CC1)N1CCN(C2CCC2)CC1 [Compound 456, 1-[3,5-bis(trifluoromethyl)benzoyl]-4-[2-(4-cyclobutylpiperazin-1-yl)-2-oxoethyl]piperazine]"
3,> 90,"O=C(CN1CCN(C(=O)c2cc(-c3ccc(Cl)cc3)oc2C(F)(F)F)CC1)N1CCN(C2CCC2)CC1 [Compound 469, 1-[5-(4-chlorophenyl)-2-(trifluoromethyl)-3-furoyl]-4-[2-(4-cyclobutylpiperazin-1-yl)-2-oxoethyl]piperazine]"
4,> 90,"Cc1oc(-c2ccc(Cl)cc2)cc1C(=O)N1CCN(CC(=O)N2CCN(C3CCC3)CC2)CC1 [Compound 470, 1-[5-(4-chlorophenyl)-2-methyl-3-furoyl]-4-[2-(4-cyclobutylpiperazin-1-yl)-2-oxoethyl]piperazine]"
5,> 90,"C=CCSc1ncccc1C(=O)N1CCN(CC(=O)N2CCN(C3CCC3)CC2)CC1 [Compound 475, 1-{[2-(allythio)pyridin-3-yl]carbonyl}-4-[2-(4-cyclobutylpiperazin-1-yl)-2-oxoethyl]piperazine]"
6,> 90,"CCCCn1c(C(=O)N2CCN(CC(=O)N3CCN(C4CCC4)CC3)CC2)cc2ccccc21 [Compound 495, 1-butyl-2-({4-[2-(4-cyclobutylpiperazin-1-yl)-2-oxoethyl]piperazin-1-yl}carbonyl)-1H-indole]"
7,> 90,"Cc1cc(C(=O)N2CCN(CC(=O)N3CCN(C4CCC4)CC3)CC2)c(C)n1C [Compound 497, 1-cyclobutyl-4-({4-[(1,2,5-trimethyl-1H-pyrrol-3-yl)carbonyl]piperazin-1-yl}acetyl)piperazine]"
8,> 90,"Cc1cc(C(=O)N2CCN(CC(=O)N3CCN(C4CCC4)CC3)CC2)nn1C [Compound 498, 1-cyclobutyl-4-({4-[(1,5-dimethyl-1H-pyrazol-3-yl)carbonyl]piperazin-1-yl}acetyl)piperazine]"
9,> 90,"CCn1nc(C)cc1C(=O)N1CCN(CC(=O)N2CCN(C3CCC3)CC2)CC1 [Compound 499, 1-cyclobutyl-4-({4-[(1-ethyl-3-methyl-1H-pyrazol-5-yl)carbonyl]piperazin-1-yl}acetyl)piperazine]"
10,> 90,"COc1ccc(C(=O)N2CCN(CC(=O)N3CCN(C4CCC4)CC3)CC2)c(OC)n1 [Compound 513, 1-cyclobutyl-4-({4-[(2,6-dimethoxypyridin-3-yl)carbonyl]piperazin-1-yl}acetyl)piperazine]"

# Continued, compound first:
row,SMILES,inhibition at 4 µM [%]
1,"COc1cc(/C=C/C(=O)N2CCN(CC(=O)N3CCN(C4CCC4)CC3)CC2)ccc1OCc1ccccc1 [Compound 471, 1-{(2E)-3-[4-(benzyloxy)-3-methoxyphenyl]prop-2-enoyl}-4-[2-(4-cyclobutylpiperazin-1-yl)-2-oxoethyl]piperazine]",> 90
2,"CCCc1c(C(=O)N2CCN(CC(=O)N3CCN(C4CCC4)CC3)CC2)cnn1-c1ccc(Cl)cc1 [Compound 472, 1-{[1-(4-chlorophenyl)-5-propyl-1H-pyrazol-4-yl]carbonyl}-4-[2-(4-cyclobutylpiperazin-1-yl)-2-oxoethyl]piperazine]",> 90
3,"O=C(CN1CCN(C(=O)c2cccnc2Oc2ccc(Cl)cc2)CC1)N1CCN(C2CCC2)CC1 [Compound 473, 1-{[2-(4-chlorophenoxy)pyridin-3-yl]carbonyl}-4-[2-(4-cyclobutylpiperazin-1-yl)-2-oxoethyl]piperazine]",> 90
4,"CC(C)(C)c1ccc(Oc2ncccc2C(=O)N2CCN(CC(=O)N3CCN(C4CCC4)CC3)CC2)cc1 [Compound 474, 1-{[2-(4-tert-butylphenoxy)pyridin-3-yl]carbonyl}-4-[2-(4-cyclobutylpiperazin-1-yl)-2-oxoethyl]piperazine]",> 90
5,"O=C(Cc1ccccc1OCc1ccccc1)N1CCN(CC(=O)N2CCN(C3CCC3)CC2)CC1 [Compound 476, 1-{[2-(benzyloxy)phenyl]acetyl}-4-[2-(4-cyclobutylpiperazin-1-yl)-2-oxoethyl]piperazine]",> 90
6,"CC(CC(=O)N1CCN(CC(=O)N2CCN(C3CCC3)CC2)CC1)Sc1ccc(Cl)cc1 (stereo not shown) [Compound 482, 1-{3-[(4-chlorophenyl)thio]butanoyl}-4-[2-(4-cyclobutylpiperazin-1-yl)-2-oxoethyl]piperazine]",> 90
7,"CCC(C)N1CCN(C(=O)CN2CCN(C(C)=O)CC2)CC1 (stereo not shown) [Compound 486, 1-acetyl-4-[2-(4-sec-butylpiperazin-1-yl)-2-oxoethyl]piperazine]",> 90
8,"O=C(COc1cccc2ccccc12)N1CCN(CC(=O)N2CCN(C3CCC3)CC2)CC1 [Compound 500, 1-cyclobutyl-4-({4-[(1-naphthyloxy)acetyl]piperazin-1-yl}acetyl)piperazine]",> 90
9,"COc1cccc(CC(=O)N2CCN(CC(=O)N3CCN(C4CCC4)CC3)CC2)c1OC [Compound 502, 1-cyclobutyl-4-({4-[(2,3-dimethoxyphenyl)acetyl]piperazin-1-yl}acetyl)piperazine]",> 90
10,"Cc1cccc(OCC(=O)N2CCN(CC(=O)N3CCN(C4CCC4)CC3)CC2)c1C [Compound 503, 1-cyclobutyl-4-({4-[(2,3-dimethylphenoxy)acetyl]piperazin-1-yl}acetyl)piperazine]",> 90
11,"O=C(COc1ccc(Cl)cc1Cl)N1CCN(CC(=O)N2CCN(C3CCC3)CC2)CC1 [Compound 504, 1-cyclobutyl-4-({4-[(2,4-dichlorophenoxy)acetyl]piperazin-1-yl}acetyl)piperazine]",> 90
12,"O=C(Cc1ccc(Cl)cc1Cl)N1CCN(CC(=O)N2CCN(C3CCC3)CC2)CC1 [Compound 505, 1-cyclobutyl-4-({4-[(2,4-dichlorophenyl)acetyl]piperazin-1-yl]acetyl)piperazine]",> 90
13,"O=C(Cc1ccc(F)cc1F)N1CCN(CC(=O)N2CCN(C3CCC3)CC2)CC1 [Compound 506, 1-cyclobutyl-4-({4-[(2,4-difluorophenyl)acetyl]piperazin-1-yl}acetyl)piperazine]",> 90
14,"Cc1ccc(OCC(=O)N2CCN(CC(=O)N3CCN(C4CCC4)CC3)CC2)c(C)c1 [Compound 508, 1-cyclobutyl-4-({4-[(2,4-dimethylphenoxy)acetyl]piperazin-1-yl}acetyl)piperazine]",> 90
15,"Cc1ccc(C)c(OCC(=O)N2CCN(CC(=O)N3CCN(C4CCC4)CC3)CC2)c1 [Compound 510, 1-cyclobutyl-4-({4-[(2,5-dimethylphenoxy)acetyl]piperazin-1-yl}acetyl)piperazine]",> 90
16,"O=C(Cc1c(F)cccc1F)N1CCN(CC(=O)N2CCN(C3CCC3)CC2)CC1 [Compound 512, 1-cyclobutyl-4-({4-[(2,6-difluorophenyl)acetyl]piperazin-1-yl}acetyl)piperazine]",> 90
17,"O=C(/C=C/c1cccc2ccccc12)N1CCN(CC(=O)N2CCN(C3CCC3)CC2)CC1 [Compound 514, 1-cyclobutyl-4-({4-[(2E)-3-(1-naphthyl)prop-2-enoyl]piperazin-1-yl}acetyl)piperazine]",> 90
18,"COc1ccc(/C=C/C(=O)N2CCN(CC(=O)N3CCN(C4CCC4)CC3)CC2)c(OC)c1OC [Compound 515, 1-cyclobutyl-4-({4-[(2E)-3-(2,3,4-trimethoxyphenyl)prop-2-enoyl]piperazin-1-yl}acetyl)piperazine]",> 90

# Same assay, conditions: 1 h; assay described in Example 8; symbol + in column headed Ki of Table II; read-out: percent inhibition of agonist-induced GTP-gammaS binding to H3
row,inhibition at 4 µM [%],SMILES
1,> 90,"O=C(CN1CCN(C(=O)c2ccc(Cl)nc2)CC1)N1CCN(C2CCC2)CC1 [Compound 416, 1-[(6-chloropyridin-3-yl)carbonyl]-4-[2-(4-cyclobutylpiperazin-1-yl)-2-oxoethyl]piperazine]"
2,> 90,"O=C(CN1CCN(C(=O)c2ccccc2Oc2ccc(Cl)cc2)CC1)N1CCN(C2CCC2)CC1 [Compound 419, 1-[2-(4-chlorophenoxy)benzoyl]-4-[2-(4-cyclobutylpiperazin-1-yl)-2-oxoethyl]piperazine]"
3,> 90,"CC(Oc1ccc(Cl)cc1)C(=O)N1CCN(CC(=O)N2CCN(C3CCC3)CC2)CC1 (stereo not shown) [Compound 420, 1-[2-(4-chlorophenoxy)propanoyl]-4-[2-(4-cyclobutylpiperazin-1-yl)-2-oxoethyl]piperazine]"

# Reference: US7851474B2, “Dipiperazinyl ketones and related analogues” (Neurogen Corporation, priority 2005, dated 2010)
